Several values for one entry are separate records, joined by “and”; a condition that tells them apart may be missing. Equal entries are not always repeated. Inconclusive results are not listed.
Test system: nude mice, LX-1 lung xenograft intrarenal, tumor weight T/C
Experiment: NCI In Vivo Anticancer Drug Screen. Data for tumor model Human Lung LX-1 Xenograft (intrarenal inoculation) in NU/NU Swiss (nude) mice
Details: endpoint: mean tumor weight change, higher = larger tumour
Summary of the method: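 Compound-treated mice carrying transplanted tumors were compared with vehicle-treated controls. Tumor size was the measured end point, and the value is the treated-group measurement divided by the control-group measurement (T/C).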

[1] = dose: 25.0 mg/kg/injection, schedule: Q01DX010 (sc), vehicle: Klucel (hydroxypropylcellulose) (HPC)
[2] = dose: 800.0 mg/kg/injection, schedule: Q01DX010 (sc), vehicle: saline
[3] = dose: 1600.0 mg/kg/injection, schedule: Q01DX010 (sc), vehicle: saline
[4] = dose: 75.0 mg/kg/injection, schedule: Q04DX003 (sc), vehicle: Klucel (hydroxypropylcellulose) (HPC)
[5] = dose: 150.0 mg/kg/injection, schedule: Q04DX003 (sc), vehicle: Klucel (hydroxypropylcellulose) (HPC)
[6] = dose: 150.0 mg/kg/injection, schedule: Q04DX003 (sc), vehicle: suspension in saline
[7] = dose: 100.0 mg/kg/injection, schedule: Q01DX010 (sc), vehicle: Klucel (hydroxypropylcellulose) (HPC)

## CNC(=O)OCc1c(COC(=O)NC)c(C)n(-c2ccc(OC)cc2)c1C
[1]
  T/C: 51 % of control
dose: 50.0 mg/kg/injection, schedule: Q01DX010 (sc), vehicle: Klucel (hydroxypropylcellulose) (HPC)
  T/C: 59 % of control and 63 % of control
dose: 50.0 mg/kg/injection, schedule: Q04DX003 (sc), vehicle: Klucel (hydroxypropylcellulose) (HPC)
  T/C: 38 % of control
dose: 800.0 mg/kg/injection, schedule: Q04DX003 (sc), vehicle: Klucel (hydroxypropylcellulose) (HPC)
  T/C: 87 % of control

## O=C1c2ccccc2C(=O)c2c3c(cc(NCCNCCO)c21)N(CCO)CCN3
dose: 200.0 mg/kg/injection, schedule: Q04DX003 (sc), vehicle: DMSO
  T/C: 122 % of control
dose: 400.0 mg/kg/injection, schedule: Q04DX003 (sc), vehicle: DMSO
  T/C: 86 % of control
dose: 800.0 mg/kg/injection, schedule: Q04DX003 (sc), vehicle: DMSO
  T/C: 83 % of control

## S=C=NCCc1ccccc1
dose: 200.0 mg/kg/injection, schedule: Q01DX010 (sc), vehicle: saline with Tween-80
  T/C: 68 % of control

## Cc1cc(=O)n2c3c(c4c(cc13)c(CN(C)C)cc(=O)n4C)OC2
dose: 75.0 mg/kg/injection, schedule: Q04DX003 (sc), vehicle: saline with Tween-80
  T/C: 59 % of control
dose: 150.0 mg/kg/injection, schedule: Q04DX003 (sc), vehicle: saline with Tween-80
  T/C: 89 % of control
dose: 300.0 mg/kg/injection, schedule: Q04DX003 (sc), vehicle: saline with Tween-80
  T/C: 55 % of control

## O=P1(NCCCl)OCCCN1CCCl (stereo unspecified)
dose: 75.0 mg/kg/injection, schedule: Q04DX003 (sc), vehicle: saline
  T/C: 93 % of control
dose: 150.0 mg/kg/injection, schedule: Q04DX003 (sc), vehicle: saline
  T/C: 109 % of control

## CN(C)C=O
[2]
  T/C: 91 % of control
[3]
  T/C: 74 % of control

## CC(C)NC(=O)N(CCCCBr)N=O
[4]
  T/C: 95 % of control
[5]
  T/C: 52 % of control
dose: 300.0 mg/kg/injection, schedule: Q04DX003 (sc), vehicle: Klucel (hydroxypropylcellulose) (HPC)
  T/C: 44 % of control

## CC[C@](C)(O)C(=O)O[C@H]1C(=O)O[C@@H]2C[C@H]3C(C)=CC(=O)[C@@H](O)[C@]3(C)[C@H]3[C@@]4(O)OC[C@]32[C@@H]1[C@@H](C)[C@H]4O
dose: 0.25 mg/kg/injection, schedule: Q01DX010 (sc), vehicle: Klucel (hydroxypropylcellulose) (HPC)
  T/C: 48 % of control
dose: 0.5 mg/kg/injection, schedule: Q01DX010 (sc), vehicle: Klucel (hydroxypropylcellulose) (HPC)
  T/C: 71 % of control and 92 % of control
dose: 1.0 mg/kg/injection, schedule: Q01DX010 (sc), vehicle: Klucel (hydroxypropylcellulose) (HPC)
  T/C: 70 % of control and 75 % of control
dose: 2.0 mg/kg/injection, schedule: Q01DX010 (sc), vehicle: Klucel (hydroxypropylcellulose) (HPC)
  T/C: 43 % of control and 45 % of control

## O=c1cc(CCl)[nH]nc1CCl
dose: 6.25 mg/kg/injection, schedule: Q01DX010 (sc), vehicle: saline with Tween-80
  T/C: 92 % of control
dose: 12.5 mg/kg/injection, schedule: Q01DX010 (sc), vehicle: saline with Tween-80
  T/C: 55 % of control
dose: 25.0 mg/kg/injection, schedule: Q01DX010 (sc), vehicle: saline with Tween-80
  T/C: 49 % of control
dose: 50.0 mg/kg/injection, schedule: Q01DX010 (sc), vehicle: saline with Tween-80
  T/C: 106 % of control

## CCC(C(=O)O)C(=O)O.[NH2-].[NH2-].[Pt+2]
dose: 37.5 mg/kg/injection, schedule: Q04DX003 (sc), vehicle: saline
  T/C: 110 % of control
dose: 75.0 mg/kg/injection, schedule: Q04DX003 (sc), vehicle: suspension in saline
  T/C: 54 % of control
dose: 100.0 mg/kg/injection, schedule: Q04DX003 (sc), vehicle: saline
  T/C: 92 % of control
dose: 100.0 mg/kg/injection, schedule: Q04DX003 (sc), vehicle: suspension in saline
  T/C: 46 % of control
[6]
  T/C: 40 % of control
dose: 200.0 mg/kg/injection, schedule: Q04DX003 (sc), vehicle: saline
  T/C: 76 % of control
dose: 200.0 mg/kg/injection, schedule: Q04DX003 (sc), vehicle: suspension in saline
  T/C: 27 % of control

## CCN1/C(=C/C=C/C=C/c2sc3ccccc3[n+]2CC)Sc2ccccc21
dose: 1.5 mg/kg/injection, schedule: Q04DX003 (sc), vehicle: saline
  T/C: 57 % of control

## CN1c2c(nc(N)[nH]c2=O)NCC1CCNc1ccc(C(=O)NC(CCC(=O)O)C(=O)O)cc1 (stereo unspecified)
dose: 100.0 mg/kg/injection, schedule: Q01DX010 (sc), vehicle: saline
  T/C: 82 % of control
dose: 200.0 mg/kg/injection, schedule: Q01DX010 (sc), vehicle: saline
  T/C: 36 % of control and 41 % of control
dose: 400.0 mg/kg/injection, schedule: Q01DX010 (sc), vehicle: saline
  T/C: 11 % of control and 36 % of control
[2]
  T/C: 11 % of control
[3]
  T/C: 27 % of control

## CC1(C)OCC(CO)(Nc2nc(N3CC3)nc(N3CC3)n2)CO1
dose: 1.25 mg/kg/injection, schedule: Q01DX010 (sc), vehicle: saline
  T/C: 74 % of control

## CNNCc1ccc(C(=O)NC(C)C)cc1
dose: 166.66 mg/kg/injection, schedule: Q04DX003 (ip), vehicle: saline
  T/C: -73 % of control
dose: 333.33 mg/kg/injection, schedule: Q04DX003 (ip), vehicle: saline
  T/C: -64 % of control
dose: 666.65 mg/kg/injection, schedule: Q04DX003 (ip), vehicle: saline
  T/C: -73 % of control

## Cc1ccc(C2NC(=O)c3ccccc3N2)s1 (stereo unspecified)
dose: 600.0 mg/kg/injection, schedule: Q04DX003 (sc), vehicle: Klucel (hydroxypropylcellulose) (HPC)
  T/C: 106 % of control
dose: 1200.0 mg/kg/injection, schedule: Q04DX003 (sc), vehicle: Klucel (hydroxypropylcellulose) (HPC)
  T/C: 86 % of control
dose: 2400.0 mg/kg/injection, schedule: Q04DX003 (sc), vehicle: Klucel (hydroxypropylcellulose) (HPC)
  T/C: 82 % of control
dose: 4800.0 mg/kg/injection, schedule: Q04DX003 (sc), vehicle: Klucel (hydroxypropylcellulose) (HPC)
  T/C: 94 % of control

## O=S(=O)(O)O.[NH-]C1CCCCC1[NH-].[Pt+2] (stereo unspecified)
dose: 0.63 mg/kg/injection, schedule: Q01DX010 (sc), vehicle: dextrose
  T/C: 85 % of control
dose: 1.25 mg/kg/injection, schedule: Q01DX010 (sc), vehicle: dextrose
  T/C: 90 % of control
dose: 2.5 mg/kg/injection, schedule: Q01DX010 (sc), vehicle: dextrose
  T/C: 82 % of control

## CC1=CC(=NN=c2cc(C)n([O-])c(C)c2)C=C(C)[N+]1=O
dose: 300.0 mg/kg/injection, schedule: Q04DX003 (sc), vehicle: suspension in saline
  T/C: 96 % of control
dose: 1200.0 mg/kg/injection, schedule: Q04DX003 (sc), vehicle: suspension in saline
  T/C: 77 % of control

## O=c1s[se]c2ccccc12
[4]
  T/C: 66 % of control
[5]
  T/C: 59 % of control

## CS(=O)(=O)CS(=O)(=O)OCCCl
[6]
  T/C: 94 % of control

## O=C(O)C1(C(=O)O)CCC1.[NH2-].[NH2-].[Pt+2]
dose: 6.25 mg/kg/injection, schedule: Q01DX010 (sc), vehicle: dextrose
  T/C: 73 % of control
dose: 12.5 mg/kg/injection, schedule: Q01DX010 (sc), vehicle: dextrose
  T/C: 88 % of control
dose: 25.0 mg/kg/injection, schedule: Q01DX010 (sc), vehicle: dextrose
  T/C: 68 % of control

## C=C1C(=O)C23[C@H](O)C1CC[C@H]2[C@]12COC3(O)[C@@H](O)[C@@H]1C(C)(C)CC[C@@H]2O
dose: 18.75 mg/kg/injection, schedule: Q04DX003 (sc), vehicle: Klucel (hydroxypropylcellulose) (HPC)
  T/C: 105 % of control
dose: 37.5 mg/kg/injection, schedule: Q04DX003 (sc), vehicle: Klucel (hydroxypropylcellulose) (HPC)
  T/C: 49 % of control

## COc1ccc(CC2C(=O)NC(C)C(=O)N(C)C3C(=O)N(C)C(Cc4ccc(O)c(c4)Oc4ccc(cc4)C3O)C(=O)NC(C)C(=O)NC(C)C(=O)N2C)cc1 (stereo unspecified)
dose: 0.5 mg/kg/injection, schedule: Q01DX010 (sc), vehicle: saline with Tween-80
  T/C: 69 % of control
dose: 1.0 mg/kg/injection, schedule: Q01DX010 (sc), vehicle: saline with Tween-80
  T/C: 85 % of control
dose: 2.0 mg/kg/injection, schedule: Q01DX010 (sc), vehicle: saline with Tween-80
  T/C: 96 % of control
dose: 4.0 mg/kg/injection, schedule: Q01DX010 (sc), vehicle: saline with Tween-80
  T/C: 40 % of control

## Cc1cc(NCCCCCCNc2cc(C)nc3cc(N(C)C)ccc23)c2ccc(N(C)C)cc2n1
dose: 75.0 mg/kg/injection, schedule: Q04DX003 (sc), vehicle: distilled water + Tween-80 + alcohol
  T/C: 46 % of control
dose: 150.0 mg/kg/injection, schedule: Q04DX003 (sc), vehicle: distilled water + Tween-80 + alcohol
  T/C: 44 % of control

## O=c1ssc(=Nc2ccccc2)n1-c1ccccc1
[7]
  T/C: 77 % of control
dose: 400.0 mg/kg/injection, schedule: Q01DX010 (sc), vehicle: Klucel (hydroxypropylcellulose) (HPC)
  T/C: 97 % of control

## CS(=O)(=O)OCCN(CCOS(C)(=O)=O)c1ccc(C=Nc2ccc(-c3csc(COc4ccccc4)n3)cc2)cc1
dose: 12.5 mg/kg/injection, schedule: Q01DX010 (sc), vehicle: Klucel (hydroxypropylcellulose) (HPC)
  T/C: 52 % of control
[1]
  T/C: 70 % of control
[7]
  T/C: 106 % of control

Reference: PubChem BioAssay AID264 (DTP/NCI, 2004)
